The values that follow come from patent US9301943B2, “Use of eupatilin” (UNIVERSITY-INDUSTRY COOPERATION GROUP OF KYUNG HEE …, priority 2011, dated 2016).

Test [1] has as its system estrogen receptor. The experiment in a line: Luciferase assay (3×ERE TATA luc), MCF7 cell line. Format: cell-based, human. The following applies: for Estrogen receptor subtype through which the substance acts (luciferase assay with siERα / siERβ): MCF-7 breast cancer cells, siRNA 50 nM; for Luciferase activity (-fold): MCF7, 24 h, non-treated group = 1. As to the method: (§1) MCF-7 (estrogen receptor-positive human breast cancer cell line), Ishikawa (estrogen receptor-positive endometrial cancer cell line), and MG-63 (human osteosarcoma; osteoblast-like cell line) were obtained from the American Type Culture Collection (ATCC). BG-1 (uterine cancer cell line) was furnished by courtesy of Dr. Korach (NIH, USA). Cells were cultured in a Dulbecco's modified Eagle's medium (DMEM) containing 10% fetal bovine serum (FBS), 100 U/ml penicillin and 100 U/ml streptomycin, at 37° C. and 5% CO2.
(§2) The luciferase assay is an assay of estimating an estrogenic activity by measuring the degree of a luciferase activity generated upon binding of a substance having an estrogenic activity to an estrogen receptor. This assay was carried out in the following procedure. Unless otherwise specified, the reagents used were purchased from Gibco (Karlwruhe, Germany).
(§3) The luciferase reporter plasmid used was 3×ERE TATA luc. (Addgene, Cambridge, USA). In order to control transfection efficiency, phRenilla-luciferase-CMV (Promega, Mannheim, Germany) as an internal control plasmid was co-transfected. Cells were cultured at a density of 2×10^5 cells/well in a 6-well plate, in a phenol red-free DMEM (Dulbecco's modified Eagle's medium) supplemented with 100 U/ml penicillin, […] streptomycin, 1 mM sodium pyruvate, 1 mM glutamine, and 10% charcoal dextran-treated fetal bovine serum (FBS). After the cells were cultured to a 50 to 60% confluence, the medium was removed, the cells were placed at 37° C. and 5% CO2 for 6 hours on a serum-free OPTI-MEM medium containing plasmid DNA constructs and 2 μg/ml of polyethyleneimine (PEI), according to the manufacturer's instructions. 1 μg/well of 3×ERE TATA luc and 100 ng of a phRL-CMV plasmid were subjected to transfection.
(§4) After the period of transfection, the medium was replaced with a phenol-free DMEM supplemented with 10% charcoal dextran-treated FBS, and the cells were cultured at 37° C. and 5% CO2 overnight prior to treatment of eupatilin.
(§5) After 18 hours of culture, the medium was replaced with a eupatilin-containing medium. The proteins were extracted 24 hours later, and firefly and renilla luciferase activities were measured on a luminometer (Molecular Devices, Sunnyvale, Calif.) using a Dual Luciferase Assay kit (Promega, Madison, Wis.) according to the manufacturer's instructions.
(§6) All experiments were carried out in triplicate and were repeated at least three times. For the luciferase assay, total cell lysates were prepared, the firefly luciferase activity was assayed and normalized to the renilla luciferase activity according to the manufacturer's instructions (Promega). Further, in order to knock down the cell levels of specific proteins, cells with co-transfection of small interfering RNAs (siRNAs) together with 3×ERE TATA luc and phRL-CMV were prepared and subjected to the same treatment of eupatilin or the like as in the cells which were not treated with siRNAs. The siRNAs used were purchased from Bioneer Corporation (Daejeon, South Korea) and treated at a concentration of 50 nM. The “siERα” means siRNA which inhibits the expression of ERα, and the “siERβ” means siRNA which inhibits the expression of ERβ.

The test system of test [2] is estrogen receptor. Kind of test: Luciferase assay (3×ERE TATA luc), Ishikawa cells. The format is cell-based. The following applies: for Estrogen receptor subtype through which the substance acts (luciferase assay with siERα / siERβ): Ishikawa endometrial cancer cells, siRNA 50 nM; for Luciferase activity (-fold): Ishikawa, 24 h, non-treated group = 1. The protocol:
as §1, §2, §3, §4, §5, §6

For test [3], the system named is estrogen receptor. Kind of test: Luciferase assay (3×ERE TATA luc), BG-1 cell line. The format is cell-based. The following applies: 24 h, non-treated group = 1. As to the method: as §1, §2
as §3, with “1 μg/well of 3×ERE TATA luc and 100 ng of a phRL-CMV plasmid were subjected to transfection.” left out
After 18 hours of culture, the medium was replaced with a eupatilin-containing medium. The proteins were extracted 24 hours later, and firefly and renilla luciferase activities were measured on a luminometer (Molecular Devices, Sunnyvale, Calif.) using a Dual Luciferase Assay kit (Promega, Madison, Wis.) according to the manufacturer's instructions. […]

The target in test [4] is T1, estrogen receptor (Homo sapiens, UniProt Q92731).
T1 construct: MG-63 (human osteosarcoma; osteoblast-like cell line); endogenous in cells; host or cells: MG-63
Kind of test: Luciferase assay (3×ERE TATA luc), MG63 cell line. The format is cell-based. Particulars: for Luciferase activity (-fold): MG63, 24 h, non-treated group = 1. The protocol: as §1, §2, §3, §4, §5
All experiments were carried out in triplicate and were repeated at least three times. For the luciferase assay, total cell lysates were prepared, the firefly luciferase activity was assayed and normalized to the renilla luciferase activity according to the manufacturer's instructions (Promega). […]

Test [5] deals with MCF7 breast cancer cells. The experiment in a line: MTT assay, cancer cell growth. Particulars: 48 h, control DMSO. The format is cell-based, human. As to the method:
Cell viability was estimated by the MTT (3-[4,5-dimethylthiazol-2-yl]-2,5-diphenyltetrazolium bromide; Sigma-Aldrich) assay to confirm cancer cell growth inhibitory effects of eupatilin.
MCF7 breast cancer cells were seeded onto a 96-well plate and incubated for 24 hours. […] On the day of collection, 50 μl of MTT solution (5 mg/ml in PBS) was added to the medium, followed by incubation at 37° C. for 4 hours. The MTT-containing medium was removed and the cells were solubilized in DMSO (100 μl) for 30 min. The cell viability was determined in terms of an optical density at 540 nm using a microplate spectrophotometer (SpectraMax; Molecular Devices, Sunnyvale, Calif.).
Ethanol which is a vehicle was served as control for the E2-treated group, and DMSO was served as control for the eupatilin-treated group.
The viability is expressed in terms of a relative ratio by taking a value of the control to be 100, and the lethality is also expressed in terms of a relative ratio by taking a value of the control to be 100.
Background: Formazan colour is commonly taken as a measure of viable cells.

The test system of test [6] is MG-63 cells. Kind of test: ALP activity in osteoblastic cells. The format is cell-based, human. Particulars: 24 h. As to the method:
The ALP activity in MG-63 cells treated with eupatilin was measured to confirm that eupatilin enhances a bone density in osteoblastic cells. […] Based on the fact that ALP degrades p-nitrophenylphosphate into p-nitrophenol and phosphate, effects of eupatilin on osteoblasts were observed by measuring an ALP activity in terms of an absorbance ratio between the absorbance of each substance and the absorbance of the control at 405 nm.
After 24 hours of the treatment, lysates were prepared and slowly shaken for 30 min. Then, the ALP activity was assayed by measuring the release of p-nitrophenol from p-nitrophenylphosphate (20 mM in 1M diethanolamine buffer supplemented with MgCl2 at pH 9.8). The absorbance was measured at 405 nm. The standard curve was drawn using various concentrations of […] within the range of 0 to 0.1 U/ml PBS-T. The ALP values were adjusted for the protein content of the corresponding cell lysates. The cultures protein content was quantified by means of a bicinchoninic acid protein assay (Thermo Scientific). The results obtained were compared with those of the control to which only BSA was added at a concentration of 100 nM and no specimen was added.

T1 sequence (Q92731 whole entry): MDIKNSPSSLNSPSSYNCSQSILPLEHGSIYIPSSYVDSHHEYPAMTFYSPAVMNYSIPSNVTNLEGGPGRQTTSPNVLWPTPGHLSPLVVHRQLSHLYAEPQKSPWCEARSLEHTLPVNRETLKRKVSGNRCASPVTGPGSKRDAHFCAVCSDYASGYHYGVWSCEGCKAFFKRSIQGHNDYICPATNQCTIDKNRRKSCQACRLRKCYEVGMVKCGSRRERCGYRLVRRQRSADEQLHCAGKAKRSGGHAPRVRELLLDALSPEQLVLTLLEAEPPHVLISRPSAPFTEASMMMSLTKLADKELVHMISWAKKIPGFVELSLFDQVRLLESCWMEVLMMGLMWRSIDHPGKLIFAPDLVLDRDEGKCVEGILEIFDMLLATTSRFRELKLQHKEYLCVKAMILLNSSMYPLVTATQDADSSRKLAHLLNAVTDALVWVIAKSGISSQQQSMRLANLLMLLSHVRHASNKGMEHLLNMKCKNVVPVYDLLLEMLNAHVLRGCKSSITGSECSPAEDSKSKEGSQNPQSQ

Regarding `C[C@]12CC[C@@H]3c4ccc(O)cc4CC[C@H]3[C@@H]1CC[C@@H]2O` [E2, 17-β-estradiol, reference compound], the “Estrogen receptor subtype through which the substance acts (luciferase assay with siERα / siERβ)” value in test [1] (E2 10^−7 M, FIG. 1) is listed as “largely induces cell proliferation via only ERα”; in test [2] (E2 10^−7 M, FIG. 2), “largely induces cell proliferation via only ERα”.

As to `COc1ccc(-c2cc(=O)c3c(O)c(OC)c(O)cc3o2)cc1OC` [Eupatilin, 5,7-dihydroxy-3′,4′,6-trimethoxyflavone], the “Luciferase activity (-fold)” value is on record as 2.4 -fold in test [1] (eupatilin 0.01 μg/ml); 2.3 -fold in test [1] (eupatilin 0.1 μg/ml); 2.8 -fold in test [1] (eupatilin 1 μg/ml); 2.9 -fold in test [3] (eupatilin 0.01 μg/ml); 3.3 -fold in test [3] (eupatilin 0.1 μg/ml); 3.7 -fold in test [3] (eupatilin 1 μg/ml). Besides, the “Luciferase activity (-fold)” value is 1.4 -fold in test [2] (eupatilin 0.01 μg/ml); 1.9 -fold in test [2] (eupatilin 0.1 μg/ml); 2.9 -fold in test [2] (eupatilin 1 μg/ml); 2.1 -fold in test [4] (eupatilin 0.01 μg/ml); 1.7 -fold in test [4] (eupatilin 0.1 μg/ml); 1.6 -fold in test [4] (eupatilin 1 μg/ml). The “Estrogen receptor subtype through which the substance acts (luciferase assay with siERα / siERβ)” value in test [1] (eupatilin 0.1 or 1.0 μg/ml, FIG. 3) was “acts equally on both ERα and ERβ”; in test [2] (eupatilin 0.1 or 1.0 μg/ml, FIG. 4) it was “acts equally on both ERα and ERβ”; in test [4] (MG-63 osteoblastic cells, siRNA 50 nM, eupatilin 0.1 or 1.0 μg/ml, FIG. 6), “acts selectively on ERβ”. Also, the “Cell lethality (% relative to control)” value in test [5] (eupatilin 0.1 μg/ml) is reported as 21.5 % relative to control; in test [5] (eupatilin 1 μg/ml), 24.5 % relative to control. In addition, the “ALP activity (% relative to control)” value in test [6] (eupatilin 0.2 μg/ml) is recorded as 20.5 % relative to control; in test [6] (eupatilin 2.0 μg/ml) it was 60 % relative to control.
